Test results published in PubChem BioAssay AID540258 (Broad Institute, 2011).

These molecules were tested on SK-MEL-5 TRPM1 promoter luciferase reporter, 24 h (assay: activation of TRPM1 promoter luciferase in melanoma cells – SK-MEL-5 cells, cherry-pick samples, dose response (AID 540258);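 note: potency for activators that raise TRPM1 promoter luciferase signal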).

First: O=C(c1nnc(-c2ccc(Cl)cc2)o1)C1CCCC1
Second: N#Cc1ccc(C(=O)NC2CCCCCCC2)cc1
The AC40 of the first is 2.8-fold higher: 10.3 µM for the first, 3.62 µM for the second.

`Cc1ccc(-c2cn(-c3ccccc3)c(=S)[nH]2)cc1C` and `COc1ccc2[nH]c(-c3ccccc3)cc2c1` are within 1.5-fold of each other in AC40: 0.997 µM for the first, 0.977 µM for the second.

First: CCCC(=O)Nc1nc(-c2ccccc2)ns1
Second: CCCNC(=O)Nc1nc2ccccc2s1
The AC40 of the first is 8.2-fold higher: 4.23 µM for the first, 0.513 µM for the second.

Compared with `O=C(Nc1ccccc1)c1ccc(-c2ccccc2)s1`, `c1ccc(Nc2ccc(Nc3ccccc3)cc2)cc1` is 25-fold higher in AC40: 0.95 µM for the first, 23.7 µM for the second.

`Cc1ccccc1-c1nc(Cc2ccccc2)no1` and `Clc1ccccc1OCc1nnc(-c2ccccc2Br)o1` are within 1.5-fold of each other in AC40: 2.78 µM for the first, 2.43 µM for the second.

`Cn1cc(Br)c(C(=O)N/N=C/c2cc3c(cc2Cl)OCO3)n1` and `Cn1cc(Br)c(C(=O)Nc2sc3c(c2C(N)=O)CCCC3)n1` are within 1.5-fold of each other in AC40: 9.65 µM for the first, 10.4 µM for the second.

Going from `Cc1ccc(C(=O)Cn2nnc3ccccc32)cc1C` to `COC(=O)Cc1ccc(NC(=O)c2ccc(C)c(C)c2)cc1`, the AC40 rises from 0.858 µM to 1.49 µM (1.7-fold).

`COc1ccccc1C(=O)NCCC(=O)NC1CCC(C)CC1` (configuration not stated) and `CC1CCC(NC(=O)c2cc3ccccc3cc2O)CC1` (configuration not stated) are within 1.5-fold of each other in AC40: 3.62 µM for the first, 2.64 µM for the second.

Compared with `COc1cc(O)c2c(=O)cc(-c3ccccc3)oc2c1`, `COc1ccc2oc(=O)c(C(=O)N3CCN(c4ccccc4C)CC3)cc2c1` is 1.7-fold lower in AC40: 14.2 µM for the first, 8.14 µM for the second.

Going from `COc1ccc(-c2nnc(-c3ccc4ccccc4c3)o2)cc1` to `c1ccc2oc(-c3ccc4nc[nH]c4c3)nc2c1`, the AC40 falls from 4.3 µM to 0.866 µM (5-fold).

First: Cc1cccc(C(=O)Oc2ccc(/C=N/O)cc2)c1
Second: COc1ccc(NC(=O)C2Cc3ccccc3O/C2=N\O)cc1 (configuration not stated)
The AC40 of the first is 6.2-fold lower: 2.74 µM for the first, 17 µM for the second.

Compared with `O=C(CC(Nc1ccccc1)C(=O)O)c1ccccc1` (configuration not stated), `Oc1cccc(-c2nc3ccc4ccccc4c3c3c2CCC3)c1` is 4-fold higher in AC40: 0.749 µM for the first, 3.02 µM for the second.

Compared with `c1csc(-c2nc(N3CCCCC3)no2)c1`, `O=C(Oc1ccc2ccccc2c1Cl)N1CCCCCC1` is 2.6-fold lower in AC40: 1.44 µM for the first, 0.557 µM for the second.

Going from `CCn1cnc2cc(NCc3ccccc3Cl)ccc21` to `Cc1cccnc1NC(=O)Nc1cccc(Cl)c1`, the AC40 falls from 14.6 µM to 2.56 µM (5.7-fold).

`O=C(NC1=NCCS1)c1ccc(Cl)s1` and `COC(=O)c1ccc(CSC2=NCCS2)cc1` are within 1.5-fold of each other in AC40: 2.64 µM for the first, 3.38 µM for the second.

First: O=C(NCCc1c[nH]c2ccccc12)c1cc(Cl)c2c(c1)OCO2
Second: COC(=O)Cc1csc(Nc2ccccc2Cl)n1
The AC40 of the first is 2.7-fold higher: 17 µM for the first, 6.3 µM for the second.

Going from `C=CCSc1nncn1/N=C/c1ccc(OC)cc1` to `CCCN(CCC)c1ncnc2c1cnn2-c1ccc(OC)cc1`, the AC40 falls from 1.41 µM to 0.256 µM (5.5-fold).

Going from `C1=C(c2cc3ccccc3cn2)CCCC1` to `Clc1ccc(-c2cnnc(-c3ccccn3)n2)cc1`, the AC40 rises from 1.08 µM to 1.71 µM (1.6-fold).

Going from `CC(=O)NCCC1CCCCN1C(=O)c1cc(COc2cc(C)ccc2C)on1` (configuration not stated) to `Cc1cc(C(=O)CN2C(=O)NC3(CCCCC3C)C2=O)c(C)n1Cc1cccs1` (configuration not stated), the AC40 rises from 3.2 µM to 8.17 µM (2.6-fold).

First: CC(C)CNC(=O)C1CCN(Cc2ccc(OCc3ccccc3)cc2)CC1
Second: Cc1ccnc(NC(=O)c2ccc(S(=O)(=O)N3CCC(C)CC3)cc2)c1
The AC40 of the first is 2.7-fold higher: 20.6 µM for the first, 7.76 µM for the second.

First: CCS(=O)(=O)N1CCN(c2nc(-c3ccccc3)cs2)CC1
Second: COc1ccccc1N1CCN(C2=Nc3cccc4cccc2c34)CC1
The AC40 of the first is 11-fold higher: 33.3 µM for the first, 3 µM for the second.

`CCCCNc1c(-c2ccc(-c3cccc(Cl)c3)cc2)nc2ccccn12` and `CN(c1ccccc1)c1nc2ccsc2c(=O)s1` are within 1.5-fold of each other in AC40: 5.54 µM for the first, 5.15 µM for the second.

Compared with `Cc1nn(-c2ccccn2)c2c1-c1nc(N)ncc1CC2`, `CC(=O)c1ccc2c(c1)Cc1cc(C(C)=O)ccc1-2` is 2-fold lower in AC40: 2.38 µM for the first, 1.19 µM for the second.

For `CC(C)(C)C(=O)OCc1nc(-c2ccc(F)cc2)cs1`, the AC40 was 11.3 µM.
